Reference: the supplement of paper PMC10307832

Tests used:
Assay in all cases: relative viability (nuclei count vs DMSO), 5 days (fraction); higher = more cells survive
Fedratinib + AZD7762 = compound: Cc1cnc(Nc2ccc(OCCN3CCCC3)cc2)nc1Nc1cccc(S(=O)(=O)NC(C)(C)C)c1 [Fedratinib] + NC(=O)Nc1cc(-c2cccc(F)c2)sc1C(=O)N[C@H]1CCCNC1 [AZD7762] (partner 0.2 µM)
Procedure, shortened: (§1)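 Lung cancer cell lines were pin-tool dosed in 1536-well plates on the day after seeding, with either a lone drug or a fixed anchor-drug dose plus five library-drug doses (not always all listed) in √10 steps. Nuclei were counted on 4× images after 5 days. Relative viability is the ratio of treated-well to vehicle-well nuclei counts, with each value a median of duplicate plates.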

GW-2580 + Trametinib = compound: COC1=CC=C(C=C1)COC2=C(C=C(C=C2)CC3=CN=C(N=C3N)N)OC [GW-2580] + CC(=O)Nc1cccc(-n2c(=O)n(C3CC3)c(=O)c3c(Nc4ccc(I)cc4F)n(C)c(=O)c(C)c32)c1 [Trametinib] (partner 0.02 µM)
Procedure, shortened: as §1

Fedratinib + Navitoclax = compound: Cc1cnc(Nc2ccc(OCCN3CCCC3)cc2)nc1Nc1cccc(S(=O)(=O)NC(C)(C)C)c1 [Fedratinib] + CC1(C)CCC(c2ccc(Cl)cc2)=C(CN2CCN(c3ccc(C(=O)NS(=O)(=O)c4ccc(N[C@H](CCN5CCOCC5)CSc5ccccc5)c(S(=O)(=O)C(F)(F)F)c4)cc3)CC2)C1 [Navitoclax] (partner 0.5 µM)
Procedure, shortened: as §1

Fedratinib + Bortezomib = compound: Cc1cnc(Nc2ccc(OCCN3CCCC3)cc2)nc1Nc1cccc(S(=O)(=O)NC(C)(C)C)c1 [Fedratinib] + CC(C)C[C@H](NC(=O)[C@H](Cc1ccccc1)NC(=O)c1cnccn1)B(O)O [Bortezomib] (partner 0.002 µM)
Procedure, shortened: as §1

Fedratinib = compound: Cc1cnc(Nc2ccc(OCCN3CCCC3)cc2)nc1Nc1cccc(S(=O)(=O)NC(C)(C)C)c1 [Fedratinib]
Procedure, shortened: (§2)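 Vehicle-anchored 1536-well plates of lung cancer cell lines, held overnight at 37 °C, were pinned with five library-drug doses (not always all listed) spaced by √10. No medium change followed over the next 5 days, after which the cells were fixed, permeabilised and Hoechst-stained together and imaged at 4×. Nuclei were counted with MetaXpress, and viability is treated-well nuclei over vehicle-well nuclei, taken as a median across plates. Plates passed with control CV below 25% and at least one doubling.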

GW-2580 = compound: COC1=CC=C(C=C1)COC2=C(C=C(C=C2)CC3=CN=C(N=C3N)N)OC [GW-2580]
Procedure, shortened: as §2

Cell Line | relative viability (Fedratinib + AZD7762; first compound 0.1 µM) | relative viability (Fedratinib + AZD7762; first compound 0.3162 µM) | relative viability (Fedratinib + AZD7762; first compound 1 µM) | relative viability (GW-2580 + Trametinib; first compound 0.08 µM) | relative viability (GW-2580 + Trametinib; first compound 0.8 µM) | relative viability (GW-2580 + Trametinib; first compound 2.53 µM) | relative viability (GW-2580 + Trametinib; first compound 8 µM) | relative viability (Fedratinib + Navitoclax; first compound 0.1 µM) | relative viability (Fedratinib + Navitoclax; first compound 0.3162 µM) | relative viability (Fedratinib + Navitoclax; first compound 1 µM) | relative viability (Fedratinib + Bortezomib; first compound 0.1 µM) | relative viability (Fedratinib + Bortezomib; first compound 0.3162 µM) | relative viability (Fedratinib + Bortezomib; first compound 1 µM) | relative viability (Fedratinib; 0.1 µM) | relative viability (Fedratinib; 0.3162 µM) | relative viability (Fedratinib; 1 µM) | relative viability (GW-2580; 0.08 µM) | relative viability (GW-2580; 0.8 µM) | relative viability (GW-2580; 2.53 µM) | relative viability (GW-2580; 8 µM)
HCC-827 | 0.161 | 0.205 | 0.219 | 0.555 | 0.552 | 0.483 | 0.568 | 0.949 | 1.01 | 1.06 | 1.09 | 1.03 | 1.03 | 1.07 | 1.01 | 1.03 | 1.06 | 1.05 | 1.04 | 0.965
NCI-H647 | 0.424 | 0.444 | 0.249 | 0.474 | 0.469 | 0.406 | 0.479 | 1.14 | 1.2 | 0.97 | 0.976 | 1.16 | 0.395 | 0.867 | 0.952 | 0.777 | 1.12 | 1.14 | 0.846 | 0.97
RERF-LC-KJ | 0.895 | 0.918 | 0.953 | 0.821 | 0.953 | 0.769 | 0.82 | 0.913 | 0.948 | 1.07 | 1.06 | 1.16 | 1.05 | 1.03 | 1.04 | 0.917 | 1.08 | 1.15 | 0.921 | 0.977
A-427 | 0.573 | 0.671 | 0.556 | 0.785 | 0.675 | 0.648 | 0.704 | 0.973 | 0.905 | 0.933 | 0.95 | 0.889 | 0.558 | 0.928 | 1.02 | 0.555 | 1.05 | 1.11 | 0.86 | 0.881
NCI-H441 | 1.34 | 1.09 | 1.05 | 0.409 | 0.463 | 0.483 | 0.374 | 0.534 | 0.341 | 0.574 | 0.538 | 0.484 | 0.236 | 1.03 | 1.04 | 0.734 | 1.07 | 0.924 | 1.01 | 1.14
NCI-H1792 | 0.58 | 0.774 | 0.483 | 0.49 | 0.502 | 0.388 | 0.337 | 0.653 | 0.58 | 0.59 | 1.14 | 0.994 | 0.887 | 0.835 | 0.989 | 0.815 | 0.939 | 1.18 | 0.92 | 0.842
PC-3 [JPC-3] | 0.775 | 0.976 | 0.668 | 0.7 | 0.674 | 0.685 | 0.745 | 0.856 | 0.804 | 0.782 | 0.796 | 0.781 | 0.869 | 0.987 | 1.03 | 0.953 | 1.12 | 1.14 | 1.09 | 0.964
EMC-BAC-2 | 1.16 | 1.1 | 0.912 | 0.805 | 0.988 | – | 0.856 | 1.19 | 1.15 | 1.11 | 1.14 | 1.01 | 1.09 | 1.1 | 1.01 | 0.833 | 1.02 | 1.12 | 0.643 | 0.901
NCI-H2126 | 1.06 | 1.01 | 1.01 | 0.547 | 0.575 | 0.5 | 0.649 | 0.852 | 0.831 | 0.86 | 1.08 | 1.12 | 1.07 | 0.95 | 0.98 | 0.927 | 1.02 | 1.01 | 0.979 | 1.05
NCI-H3122 | 1.07 | 1.02 | 0.912 | 0.305 | 0.264 | 0.18 | 0.234 | 1.01 | 0.964 | 1.01 | 0.991 | 0.981 | 0.485 | 1.05 | 1.02 | 0.892 | 1.03 | 1.09 | 1.06 | 1.01
NCI-H1975 | 0.562 | 0.676 | 0.566 | 0.34 | 0.38 | 0.306 | 0.275 | 1.08 | 1.01 | 0.953 | 0.388 | 0.405 | 0.163 | 0.933 | 0.939 | 0.798 | 1.04 | 1.12 | 0.935 | 0.87
LU99A | 0.322 | 0.325 | 0.272 | 0.668 | 0.646 | 0.499 | 0.462 | 0.824 | 0.834 | 0.666 | 1.12 | 1.14 | 0.466 | 0.969 | 0.934 | 0.924 | 0.991 | 0.875 | 0.949 | 0.916
NCI-H2347 | 0.757 | 0.645 | 0.857 | 0.294 | 0.277 | 0.266 | 0.268 | 0.675 | 0.823 | 0.733 | 0.82 | 0.874 | 0.722 | 1.04 | 0.932 | 0.938 | 0.989 | 1.1 | 0.88 | 1.07
HCC-15 | 1.19 | 1.28 | 1.2 | 0.393 | 0.412 | 0.337 | 0.307 | 0.654 | 0.635 | 0.487 | 1.04 | 0.963 | 0.469 | 0.869 | 0.972 | 0.911 | 1.08 | 1.19 | 0.98 | 1.02
